Here are results for one molecule from patent US20240130979A1, “COMPOSITIONS AND METHODS FOR TREATMENT OF SKIN CONDITIONS” (EpiTop, Inc., priority 2022, published 2024).

Holding throughout (type): cell-based, human
In series [1] the test system is FLG. As to the kind of experiment: FLG gene expression in NHEKs, real-time RT-PCR (Example 1). The note with it: 0.01 and 0.02 v/v % thujopsene, 24 hours, dose-dependent, normalized to 18s RNA (FIG. 1A). How it is done:
(§1) Normal human epidermal keratinocytes (NHEKs) were cultured in a conventional way. NHEKs (Life Technologies, Grand Island, NY, USA) were derived from neonatal foreskin and were grown in serum-free EpiLife cell culture medium (Life Technologies) containing 0.06 mmol/L calcium chloride, 1% human keratinocyte growth supplement S7 (Life Technologies), and 1% of gentamicin/amphotericin. To investigate the effects of thujopsene on the expressions of FLG and LOR, NHEKs were seeded at 2×10^5 cells per well (24-well plate) and differentiated in the presence of 1.3 mmol/L of CaCl2) for 3 days. Then the cells were stimulated with 0 v/v %, 0.01 v/v % and 0.02 v/v % of thujopsene, IL-4 and IL-13, or IFN-γ for an additional 24 hours. Total RNA was isolated from NHEKs. Gene expression levels of FLG and LOR were determined by real-time RT-PCR using an ABI Prism 7300 sequence detector. Gene expressions of FLG and LOR were normalized to the corresponding 18s RNA transcript in the cultured NHEKs.
Background: Quantitative PCR measures a nucleic acid by following its amplification.

Another series concerns LL-37. In words: LL-37 gene expression in NHEKs (Example 5). The settings on record: 0.01% and 0.02% thujopsene, 24 hours, dose-dependent, versus no thujopsene (FIG. 5B). As for the experimental part:
(§2) The upregulation of expressions of HBD-3, LL-37, OR2AT4, and/or SIRT1 can promote would healing and the upregulation of SIRT1 can inhibit tumor cell growth in skin cancer. To investigate the effects of thujopsene on expression of RBD-3, LL-37, OR2AT4, and SIRT1, NHEKs were differentiated in the presence of 1.3 mmol/L of CaCl2) for 3 days. Then cells were stimulated with 0.01% or 0.02% thujopsene for an additional 24 hours. The cell culture medium with 0.1% was used as a vehicle control because thujopsene was diluted with 0.1% of DMSO in cell culture medium.
(§3) Total RNA was isolated from to the cells, and real time RT-PCRs were performed by using an ABI Prism 7300 sequence detector.

The subject of series [2] is LOR. As to the kind of experiment: LOR gene expression in keratinocytes from atopic dermatitis patients (Example 3). The settings on record: keratinocytes from AD patients, 0.01 v/v % thujopsene, 24 hours, P=0.01 (FIG. 3B). How it is done:
(§4) Human epidermal keratinocytes taken from atopic dermatitis (AD) patients were differentiated in the presence of 1.3 mmol/L of CaCl2) for 3 days, and then the cells were stimulated with 0% and 0.01 v/v % of thujopsene for an additional 24 hours. Total RNA was isolated from keratinocytes. Gene expression levels of FLG and LOR were determined by real-time RT-PCR and normalized to the corresponding 18s RNA transcript in the cultured keratinocytes.

Series [3] concerns SIRT1. In words: SIRT1 gene expression in NHEKs (Example 5). The note with it: 0.01% and 0.02% thujopsene, 24 hours, dose-dependent, versus no thujopsene (FIG. 5D). How it is done: as §2, §3
The next series concerns OR2AT4. In words: OR2AT4 gene expression in NHEKs (Example 5). The settings on record: 0.01% and 0.02% thujopsene, 24 hours, dose-dependent, versus no thujopsene (FIG. 5C). How it is done:
as §2, §3

In series [4] the test system is LOR. In words: PM2.5-mediated inhibition of LOR in NHEKs (Example 4). The settings on record: 0.01% thujopsene 24 hours, then PM2.5 (1 ng/mL) plus thujopsene 48 hours (FIG. 4B). How it is done: (§5) To investigate the effects of the PM2.5 on the expression of FLG and LOR, NHEKs were differentiated in the presence of 1.3 mmol/L of CaCl2) for 3 days. Then cells were stimulated with PM2.5 (1 ng/mL) for an additional 48 hours.
(§6) To examine whether thujopsene blocks PM2.5-mediated inhibition of epidermal barrier proteins such as FLG and LOR, NHEKs were incubated with thujopsene (0.01 v/v %) for 24 hours, and then cells were stimulated with PM2.5 (1 ng/mL) or combination of thujopsene (0.01 v/v %) and PM2.5 for an additional 48 hours. Total RNAs were isolated from the cells, and real time RT-PCR was performed. EpiLife cell culture medium with 0.1% DMSO was used as a vehicle control for all in vitro experiments, as PM2.5 was diluted with EpiLife cell culture medium with 0.1% DMSO.

The subject of a further series is HBD-3. In words: HBD-3 gene expression in NHEKs (Example 5). The settings on record: 0.01% and 0.02% thujopsene, 24 hours, dose-dependent, versus no thujopsene (FIG. 5A). As for the experimental part:
as §2, §3

For another series, the system named is NHEKs. As to the kind of experiment: LDH cell cytotoxicity assay in NHEKs (Example 7). How it is done:
LDH cell cytotoxicity assay: NHEKs were plated at 2×10^5 cells per well in a 24-well plate and differentiated in the presence of 1.3 mmol/L of CaCl2) for 3 days. To examine cell toxicity of thujopsene, the cells were treated with various concentrations of thujopsene for 48 hours, and lactate dehydrogenase (LDH) release was then determined using CytoTox-One Homogeneous Membrane Integrity Assay (Promega, Madison, WI, USA) according to the manufacturer's instructions. Fluorescence was measured on a DTX880 Multimode Detector (Beckman Coulter, Brea, CA, USA) with an excitation wavelength of 560 nm and an emission wavelength of 590 nm. Samples were tested in triplicate and fluorescence results were normalized by subtracting a PBS blank and compared to the keratinocyte LDH release in response to the treatment with 1% triton X-100 solution (maximum LDH release).

Series [5] relates to SIRT1. In words: SIRT1 gene expression in NHEKs (Example 6). How it is done: (§7) IL-6 aging process and wrinkling and is induced by lipopolysaccharide (LPS) (PMID: 23659624). SIRT1 inhibits skin aging and wrinkling process (PMID: 24011076). To investigate the effects of thujopsene on expression of IL-6 and SIRT1, NHEKs were seeded at 2×10^5 cells per well and differentiated in the presence of 1.3 mmol/L of CaCl2) for 3 days. NHEKs were stimulated with 0.01% or 0.02% thujopsene for 24 hours, and then cells were stimulated with LPS (1 μg/mL) alone or a combination of LPS (1 μg/mL) and thujopsene (0.01%) for an additional 24 hours. The cell culture medium with 0.1% DMSO was used as a vehicle. Total RNAs were isolated from cells, and real time RT-PCRs were performed by using an ABI Prism 7300 sequence detector.

For series [6], the system named is LOR. In words: LOR gene expression in NHEKs, real-time RT-PCR (Example 1). The note with it: 0.01 and 0.02 v/v % thujopsene, 24 hours, dose-dependent, normalized to 18s RNA (FIG. 1B). How it is done: as §1
In the next series the test system is IL-6. As to the kind of experiment: LPS-induced IL-6 gene expression in NHEKs (Example 6). The note with it: thujopsene (0.01%) plus LPS (1 μg/mL), 24 hours, versus LPS alone (FIG. 6A). As for the experimental part: as §7
In series [7] the test system is FLG. As to the kind of experiment: PM2.5-mediated inhibition of FLG in NHEKs (Example 4). The note with it: 0.01% thujopsene 24 hours, then PM2.5 (1 ng/mL) plus thujopsene 48 hours (FIG. 4A). As for the experimental part:
as §5, §6

Series [8] deals with FLG. In words: Th2 cytokine (IL-4 and IL-13)-mediated inhibition of FLG in NHEKs (Example 2). The settings on record: 0.01% thujopsene 24 hours, then IL-4 and IL-13 with thujopsene for 2 days (FIG. 2). How it is done: NHEKs were differentiated in the presence of 1.3 mmol/L of CaCl2) for 3 days. HEKs were incubated with 0.01% of thujopsene for 24 hours, and then the cells were continuously stimulated with IL-4 and IL-13 in the presence or absence of 0.01% of thujopsene for an additional 2 days. The gene expression of FLG was examined using real-time RT-PCR.

Series [9] concerns FLG. As to the kind of experiment: FLG gene expression in keratinocytes from atopic dermatitis patients (Example 3). The settings on record: keratinocytes from AD patients, 0.01 v/v % thujopsene, 24 hours, P<0.05 (FIG. 3A). As for the experimental part: as §4

`CC1=CC[C@]2(C)CCCC(C)(C)[C@@]23C[C@@H]13` [thujopsene]: the FLG gene expression result in the series with FLG [1] is given as “significantly increases”. For the same molecule, the “gene expression of LL-37” value with LL-37 is “significantly increased”. In the series with LOR [2], the “LOR gene expression compared to vehicle” value is given as “significantly increased”. The “gene expression of SIRT1” value with SIRT1 [3] is “significantly increased”; in the series on SIRT1 [5] (0.01% thujopsene, P<0.05 versus no thujopsene (FIG. 6B)) it was “significantly increased”; in the series with SIRT1 [5] (0.02% thujopsene, P<0.01 versus no thujopsene (FIG. 6B)) it was “significantly increased”. The “gene expression of OR2AT4” value in the series with OR2AT4 is recorded as “significantly increased”. The “level of expression of the LOR gene, PM2.5 plus thujopsene versus control” value in the series with LOR [4] is reported as “about equal to the control”. Moreover, the “gene expression of RBD-3” value with HBD-3 is “significantly increased”. In addition, the “toxicity to NHEKs” value with NHEKs (thujopsene up to 0.04 v/v % (FIG. 7 legend)) is “not toxic”; in the series on NHEKs (thujopsene up to 4 v/v %, 48 hours, LDH release (FIG. 7)), “not toxic”. Besides, the “LDH release compared to cells treated with media alone” value in the series with NHEKs (thujopsene up to 4 v/v %, 48 hours (FIG. 7)) is on record as “significantly decreased”. Besides, the LOR gene expression entry in the series with LOR [6] was “significantly increases”. For the same molecule, the “LPS-induced expression of IL-6” value in the series on IL-6 is reported as “significantly (P<0.01) attenuated”. Also, the “level of expression of the FLG gene, PM2.5 plus thujopsene versus control” value with FLG [7] was “higher than the control”. In the series on FLG [8], the “FLG gene expression, Th2 cytokines plus thujopsene compared with Th2 cytokines alone” value is “significantly (P<0.01) increased”. Besides, the “FLG gene expression compared to vehicle” value in the series on FLG [9] was “significantly increased”.
